Where two headings read alike, the source gives them in different places. Starred links: 1 amine or outer side, 2 acyl side, 3 side chain; linkers in the order of their positions; H or OH if unused. Positions of bridges follow the written chain, without caps; N, C: chain ends. Non-standard residues stand in square brackets, D forms with d. Residues, ends and D or L forms follow the SMILES beside them. ξ: configuration not given here. *: point of attachment. NMeF = CN[C@@H](Cc1ccccc1)C(=O)O; NMeI = CC[C@H](C)[C@H](NC)C(=O)O; NMeβAla = CN(CCC(=O)[*:2])[*:1]; NMeL = CN[C@@H](CC(C)C)C(=O)O; ξNMeF = CNC(Cc1ccccc1)C(=O)O; NMeV = CN[C@H](C(=O)O)C(C)C; NMeA = CN[C@@H](C)C(=O)O; Piperidide = C1CCN(*)CC1; dNMeA = CN[C@H](C)C(=O)O; Sar = CNCC(=O)O
Key:
[1] = PAMPA (parallel artificial membrane permeability assay); type: in vitro ADME; conditions: PAMPA
Summary of the method: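 Artificial membrane was 10% (w/v) egg lecithin plus 0.5% (w/v) cholesterol in dodecane on a PVDF filter. A 10 mM DMSO stock was added at 0.5% (v/v) to donor buffer (50 mM MOPSO, pH 6.5, 5.0% glycocholic acid). After 18 h at 37 °C, LC/MS or LC/UV gave donor and acceptor levels for Pe.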

[2] = Metabolic stability in human hepatic microsome; type: in vitro ADME; conditions: microsomes

Row | SMILES | Papp at 18 hours, 50 µM ([1]; pH 6.5) [×10⁻⁶ cm/s] | microsomal CLint at 1 uM ([2]; human, pH 7.4, CL NADPH(+)) [µL/min/mg] | Papp at 18 hours, 50 µM ([1]; membrane permeation rate (Pe), 50 mM MOPSO buffer pH 6.5 with 5.0% glycocholic acid, 37° C., 18 hours, read-out: iPAMPA Pe) [×10⁻⁶ cm/s] | microsomal CLint at 1 uM ([2]; pH 7.4, human hepatic microsome, NADPH(+), read-out: CL NADPH(+)) [µL/min/mg]
1 | CC[C@H](C)[C@@H]1NC(=O)[C@H](C)N(C)C(=O)[C@H](CC(C)C)N(C)C(=O)[C@H](Cc2ccccc2)NC(=O)[C@H]([C@@H](C)O)NC(=O)[C@H](C(C)C)N(C)C(=O)[C@H](C)N(C)C(=O)CN(C)C(=O)[C@@H](C(C)C)NC(=O)C[C@@H](C(=O)N(C)C(Cc2ccccc2)C(=O)N(C)[C@@H](Cc2ccccc2)C(=O)N[C@@H](C)C(=O)N2CCCCC2)NC1=O (stereo partly shown) [DP-293] ([dV][Sar][NMeA][NMeV]TF[NMeL][NMeA]ID[ξNMeF][NMeF]A-Piperidide; lactam N-10) | 45 | 29 |  | 
2 | CC[C@H](C)[C@@H]1NC(=O)[C@@H](C(C)C)NC(=O)C[C@@H](C(=O)N(C)[C@@H](Cc2ccccc2)C(=O)N[C@@H](C)C(=O)N2CCCCC2)NC(=O)[C@H](Cc2ccccc2)N(C)C(=O)[C@H](C)NC(=O)[C@H](CC(C)C)N(C)C(=O)[C@H](C)N(C)C(=O)[C@H]([C@@H](C)O)NC(=O)[C@H](C)N(C)C(=O)[C@H](C(C)C)N(C)C1=O [DP-294] ([dV]I[NMeV][NMeA]T[NMeA][NMeL]A[NMeF]D[NMeF]A-Piperidide; lactam N-10) | 17 | 35 |  | 
3 | CC(C)C[C@H]1C(=O)N[C@H](C(=O)N(C)[C@@H](Cc2ccccc2)C(=O)N[C@@H](C)C(=O)N2CCCCC2)CC(=O)N(C)[C@@H](C)C(=O)N[C@@H](Cc2ccccc2)C(=O)N(C)[C@@H](C(C)C)C(=O)N(C)[C@@H](C)C(=O)N[C@@H]([C@@H](C)O)C(=O)N(C)[C@@H](C)C(=O)N(C)[C@@H](CC(C)C)C(=O)N[C@@H](C)C(=O)N1C [DP-296] ([NMeA]F[NMeV][NMeA]T[NMeA][NMeL]A[NMeL]D[NMeF]A-Piperidide; lactam N-10) | 15 | 64 |  | 
4 | CC[C@H](C)[C@@H]1NC(=O)[C@H](C(C)C)N(C)C(=O)[C@H](CC(C)C)N(C)C(=O)[C@H](C)N(C)C(=O)[C@H]([C@@H](C)O)NC(=O)[C@H](Cc2ccccc2)N(C)C(=O)CCN(C)C(=O)C[C@@H](C(=O)N(C)[C@@H](Cc2ccccc2)C(=O)N(C)[C@@H](Cc2ccccc2)C(=O)N[C@@H](C)C(=O)N2CCCCC2)NC(=O)[C@H](C)N(C)C(=O)[C@H](CC(C)C)N(C)C1=O [DP-297] ([NMeβAla][NMeF]T[NMeA][NMeL][NMeV]I[NMeL][NMeA]D[NMeF][NMeF]A-Piperidide; lactam N-10) | 19 | 78 |  | 
5 | CC(C)C[C@H]1C(=O)N[C@@H](Cc2ccccc2)C(=O)N(C)[C@@H](C(C)C)C(=O)N[C@@H]([C@@H](C)O)C(=O)N[C@H](C(=O)N(C)[C@@H](Cc2ccccc2)C(=O)N(C)[C@@H](Cc2ccccc2)C(=O)N[C@@H](C)C(=O)N2CCCCC2)CC(=O)N(C)CCC(=O)N[C@@H](C(C)C)C(=O)N(C)[C@@H](CC(C)C)C(=O)N(C)[C@@H](Cc2ccccc2)C(=O)NCC(=O)N1C [DP-298] ([NMeβAla]V[NMeL][NMeF]G[NMeL]F[NMeV]TD[NMeF][NMeF]A-Piperidide; lactam N-10) | 7 | 39 |  | 
6 | CC[C@H](C)[C@@H]1NC(=O)[C@H](Cc2ccccc2)N(C)C(=O)[C@H](CC(C)C)N(C)C(=O)[C@H](Cc2ccccc2)N(C)C(=O)[C@H]([C@@H](C)O)NC(=O)CCN(C)C(=O)C[C@@H](C(=O)N(C)[C@@H](Cc2ccccc2)C(=O)N[C@@H](C)C(=O)N2CCCCC2)NC(=O)[C@H](CC(C)C)N(C)C(=O)[C@H](C)N(C)C(=O)[C@H](CC(C)C)N(C)C1=O [DP-299] ([NMeβAla]T[NMeF][NMeL][NMeF]I[NMeL][NMeA][NMeL]D[NMeF]A-Piperidide; lactam N-10) | 5.3 | 56 |  | 
7 | CC[C@H](C)[C@@H]1NC(=O)[C@H](CC(C)C)N(C)C(=O)[C@H](C)N(C)C(=O)[C@H]([C@@H](C)O)NC(=O)[C@H](Cc2ccccc2)N(C)C(=O)[C@H](C)N(C)C(=O)[C@@H](C)N(C)C(=O)C[C@@H](C(=O)N(C)[C@@H](Cc2ccccc2)C(=O)N(C)[C@@H](Cc2ccccc2)C(=O)N[C@@H](C)C(=O)N2CCCCC2)NC(=O)[C@H](C(C)C)N(C)C(=O)[C@H](CC(C)C)N(C)C1=O [DP-300] ([dNMeA][NMeA][NMeF]T[NMeA][NMeL]I[NMeL][NMeV]D[NMeF][NMeF]A-Piperidide; lactam N-10) |  |  | 8.2 | 166
8 | CC(C)C[C@H]1C(=O)N[C@@H]([C@@H](C)O)C(=O)N(C)[C@@H](Cc2ccccc2)C(=O)N(C)[C@@H](CC(C)C)C(=O)NCC(=O)N(C)[C@@H](C(C)C)C(=O)N[C@@H](Cc2ccccc2)C(=O)N[C@H](C(=O)N(C)[C@@H](Cc2ccccc2)C(=O)N[C@@H](C)C(=O)N2CCCCC2)CC(=O)N(C)[C@H](C)C(=O)N[C@@H](C(C)C)C(=O)N1C [DP-301] ([dNMeA]V[NMeL]T[NMeF][NMeL]G[NMeV]FD[NMeF]A-Piperidide; lactam N-10) | 15 | 184 |  | 
9 | CC[C@H](C)[C@H]1C(=O)N[C@H](C(=O)N(C)[C@@H](Cc2ccccc2)C(=O)N(C)[C@@H](Cc2ccccc2)C(=O)N[C@@H](C)C(=O)N2CCCCC2)CC(=O)N(C)CC(=O)N(C)[C@@H](C)C(=O)N[C@@H]([C@@H](C)O)C(=O)N(C)[C@@H](C)C(=O)N(C)[C@@H](CC(C)C)C(=O)N(C)[C@@H](Cc2ccccc2)C(=O)N[C@@H](C(C)C)C(=O)N(C)[C@@H](CC(C)C)C(=O)N1C [DP-302] ([Sar][NMeA]T[NMeA][NMeL][NMeF]V[NMeL][NMeI]D[NMeF][NMeF]A-Piperidide; lactam N-10) | 18 | 102 |  | 
10 | CC(C)C[C@H]1C(=O)NCC(=O)N(C)[C@@H](Cc2ccccc2)C(=O)N(C)[C@@H](C(C)C)C(=O)N[C@@H]([C@@H](C)O)C(=O)N[C@H](C(=O)N(C)[C@@H](Cc2ccccc2)C(=O)N(C)[C@@H](Cc2ccccc2)C(=O)N[C@@H](C)C(=O)N2CCCCC2)CC(=O)N(C)CC(=O)N[C@@H](C(C)C)C(=O)N(C)[C@@H](CC(C)C)C(=O)N[C@@H](Cc2ccccc2)C(=O)N1C [DP-303] ([Sar]V[NMeL]F[NMeL]G[NMeF][NMeV]TD[NMeF][NMeF]A-Piperidide; lactam N-10) | 1.2 | 27 |  | 
11 | CC(C)C[C@H]1C(=O)N[C@@H]([C@@H](C)O)C(=O)N(C)[C@@H](Cc2ccccc2)C(=O)N(C)[C@@H](CC(C)C)C(=O)NCC(=O)N(C)[C@@H](C(C)C)C(=O)N[C@@H](Cc2ccccc2)C(=O)N[C@H](C(=O)N(C)[C@@H](Cc2ccccc2)C(=O)N[C@@H](C)C(=O)N2CCCCC2)CC(=O)N(C)CC(=O)N[C@@H](C(C)C)C(=O)N1C [DP-304] ([Sar]V[NMeL]T[NMeF][NMeL]G[NMeV]FD[NMeF]A-Piperidide; lactam N-10) | 35 | 212 |  | 
12 | CC[C@H](C)[C@H]1C(=O)N[C@H](C(=O)N(C)[C@@H](Cc2ccccc2)C(=O)N[C@@H](C)C(=O)N2CCCCC2)CC(=O)N[C@@H](C)C(=O)N(C)[C@@H](Cc2ccccc2)C(=O)N(C)[C@@H](CC(C)C)C(=O)N[C@@H]([C@@H](C)O)C(=O)N(C)[C@@H](C)C(=O)N[C@@H](C(C)C)C(=O)N(C)[C@@H](CC(C)C)C(=O)N1C [DP-305] (A[NMeF][NMeL]T[NMeA]V[NMeL][NMeI]D[NMeF]A-Piperidide; lactam N-9) | 35 | 700 |  | 
13 | CC(C)C[C@H]1C(=O)N[C@@H](C(C)C)C(=O)N[C@H](C(=O)N(C)C(Cc2ccccc2)C(=O)N(C)[C@@H](Cc2ccccc2)C(=O)N[C@@H](C)C(=O)N2CCCCC2)CC(=O)N[C@H](C(C)C)C(=O)N(C)[C@@H](C)C(=O)N(C)[C@@H](Cc2ccccc2)C(=O)N(C)[C@@H](CC(C)C)C(=O)N[C@@H]([C@@H](C)O)C(=O)N(C)CC(=O)N1C (stereo partly shown) [DP-306] ([dV][NMeA][NMeF][NMeL]T[Sar][NMeL]VD[ξNMeF][NMeF]A-Piperidide; lactam N-9) | 56 | 63 |  | 
14 | CC(C)C[C@H]1C(=O)NCC(=O)N[C@H](C(=O)N(C)[C@@H](Cc2ccccc2)C(=O)N[C@@H](C)C(=O)N2CCCCC2)CC(=O)N[C@H](C)C(=O)N[C@@H]([C@@H](C)O)C(=O)N(C)[C@@H](C)C(=O)N(C)[C@@H](Cc2ccccc2)C(=O)N[C@@H](C(C)C)C(=O)N(C)[C@@H](Cc2ccccc2)C(=O)N1C [DP-307] ([dA]T[NMeA][NMeF]V[NMeF][NMeL]GD[NMeF]A-Piperidide; lactam N-9) | 22 | 125 |  | 
15 | CC(C)C[C@H]1C(=O)N(C)[C@@H](Cc2ccccc2)C(=O)N(C)[C@@H](Cc2ccccc2)C(=O)NCC(=O)N(C)[C@@H](C)C(=O)N[C@@H]([C@@H](C)O)C(=O)N[C@H](C(=O)N(C)[C@@H](Cc2ccccc2)C(=O)N(C)[C@@H](Cc2ccccc2)C(=O)N[C@@H](C)C(=O)N2CCCCC2)CC(=O)N(C)[C@@H](C)C(=O)N[C@@H](C(C)C)C(=O)N1C [DP-309] ([NMeA]V[NMeL][NMeF][NMeF]G[NMeA]TD[NMeF][NMeF]A-Piperidide; lactam N-9) | 26 | 212 |  | 
16 | CC(C)C[C@H]1C(=O)N(C)[C@@H](CC(C)C)C(=O)N[C@H](C(=O)N(C)[C@@H](Cc2ccccc2)C(=O)N[C@@H](C)C(=O)N2CCCCC2)CC(=O)N(C)[C@@H](C)C(=O)N[C@@H](C(C)C)C(=O)N(C)[C@@H](Cc2ccccc2)C(=O)N(C)CC(=O)N[C@@H]([C@@H](C)O)C(=O)N(C)[C@@H](C)C(=O)N1C [DP-310] ([NMeA]V[NMeF][Sar]T[NMeA][NMeL][NMeL]D[NMeF]A-Piperidide; lactam N-9) | 35 | 143 |  | 
17 | CC(C)C[C@H]1C(=O)N[C@@H](Cc2ccccc2)C(=O)N[C@H](C(=O)N(C)[C@@H](Cc2ccccc2)C(=O)N[C@@H](C)C(=O)N2CCCCC2)CC(=O)N(C)[C@@H](C)C(=O)N[C@@H]([C@@H](C)O)C(=O)N(C)[C@@H](C)C(=O)N[C@@H](C(C)C)C(=O)N(C)CC(=O)N(C)[C@@H](Cc2ccccc2)C(=O)N1C [DP-311] ([NMeA]T[NMeA]V[Sar][NMeF][NMeL]FD[NMeF]A-Piperidide; lactam N-9) | 48 | 74 |  | 

Reference: US9409952B2, “Peptide-compound cyclization method” (Chugai Seiyaku Kabushiki Kaisha, priority 2011, dated 2016)
